Results reported in patent publication US9446039B2, “Aminoheteroaryl compounds as MTH1 inhibitors” (CEMM—FORSCHUNGSZENTRUM FÜR MOLEKULARE MEDIZIN GMBH, priority 2012, dated 2016).

Legend:
Type in all cases: binding
[1] = target: T1, SW480 colon carcinoma cells lysate proteins (Homo sapiens, UniProt P12429); settings: PreyGene ANXA3
T1 sequence (P12429 1-323): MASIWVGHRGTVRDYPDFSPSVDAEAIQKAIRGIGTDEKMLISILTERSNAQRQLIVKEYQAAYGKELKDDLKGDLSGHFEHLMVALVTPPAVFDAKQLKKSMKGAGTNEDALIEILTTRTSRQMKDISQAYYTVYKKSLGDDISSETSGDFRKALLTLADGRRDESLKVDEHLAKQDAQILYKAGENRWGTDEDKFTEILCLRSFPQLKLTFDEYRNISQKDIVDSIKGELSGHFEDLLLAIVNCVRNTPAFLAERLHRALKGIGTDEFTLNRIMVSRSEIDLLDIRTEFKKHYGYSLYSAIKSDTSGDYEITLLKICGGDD

[2] = target: SW480 colon carcinoma cells lysate proteins (Homo sapiens, UniProt P27708); settings: PreyGene CAD
SW480 colon carcinoma cells lysate proteins (Homo sapiens, UniProt P27708), sequence (P27708 whole entry): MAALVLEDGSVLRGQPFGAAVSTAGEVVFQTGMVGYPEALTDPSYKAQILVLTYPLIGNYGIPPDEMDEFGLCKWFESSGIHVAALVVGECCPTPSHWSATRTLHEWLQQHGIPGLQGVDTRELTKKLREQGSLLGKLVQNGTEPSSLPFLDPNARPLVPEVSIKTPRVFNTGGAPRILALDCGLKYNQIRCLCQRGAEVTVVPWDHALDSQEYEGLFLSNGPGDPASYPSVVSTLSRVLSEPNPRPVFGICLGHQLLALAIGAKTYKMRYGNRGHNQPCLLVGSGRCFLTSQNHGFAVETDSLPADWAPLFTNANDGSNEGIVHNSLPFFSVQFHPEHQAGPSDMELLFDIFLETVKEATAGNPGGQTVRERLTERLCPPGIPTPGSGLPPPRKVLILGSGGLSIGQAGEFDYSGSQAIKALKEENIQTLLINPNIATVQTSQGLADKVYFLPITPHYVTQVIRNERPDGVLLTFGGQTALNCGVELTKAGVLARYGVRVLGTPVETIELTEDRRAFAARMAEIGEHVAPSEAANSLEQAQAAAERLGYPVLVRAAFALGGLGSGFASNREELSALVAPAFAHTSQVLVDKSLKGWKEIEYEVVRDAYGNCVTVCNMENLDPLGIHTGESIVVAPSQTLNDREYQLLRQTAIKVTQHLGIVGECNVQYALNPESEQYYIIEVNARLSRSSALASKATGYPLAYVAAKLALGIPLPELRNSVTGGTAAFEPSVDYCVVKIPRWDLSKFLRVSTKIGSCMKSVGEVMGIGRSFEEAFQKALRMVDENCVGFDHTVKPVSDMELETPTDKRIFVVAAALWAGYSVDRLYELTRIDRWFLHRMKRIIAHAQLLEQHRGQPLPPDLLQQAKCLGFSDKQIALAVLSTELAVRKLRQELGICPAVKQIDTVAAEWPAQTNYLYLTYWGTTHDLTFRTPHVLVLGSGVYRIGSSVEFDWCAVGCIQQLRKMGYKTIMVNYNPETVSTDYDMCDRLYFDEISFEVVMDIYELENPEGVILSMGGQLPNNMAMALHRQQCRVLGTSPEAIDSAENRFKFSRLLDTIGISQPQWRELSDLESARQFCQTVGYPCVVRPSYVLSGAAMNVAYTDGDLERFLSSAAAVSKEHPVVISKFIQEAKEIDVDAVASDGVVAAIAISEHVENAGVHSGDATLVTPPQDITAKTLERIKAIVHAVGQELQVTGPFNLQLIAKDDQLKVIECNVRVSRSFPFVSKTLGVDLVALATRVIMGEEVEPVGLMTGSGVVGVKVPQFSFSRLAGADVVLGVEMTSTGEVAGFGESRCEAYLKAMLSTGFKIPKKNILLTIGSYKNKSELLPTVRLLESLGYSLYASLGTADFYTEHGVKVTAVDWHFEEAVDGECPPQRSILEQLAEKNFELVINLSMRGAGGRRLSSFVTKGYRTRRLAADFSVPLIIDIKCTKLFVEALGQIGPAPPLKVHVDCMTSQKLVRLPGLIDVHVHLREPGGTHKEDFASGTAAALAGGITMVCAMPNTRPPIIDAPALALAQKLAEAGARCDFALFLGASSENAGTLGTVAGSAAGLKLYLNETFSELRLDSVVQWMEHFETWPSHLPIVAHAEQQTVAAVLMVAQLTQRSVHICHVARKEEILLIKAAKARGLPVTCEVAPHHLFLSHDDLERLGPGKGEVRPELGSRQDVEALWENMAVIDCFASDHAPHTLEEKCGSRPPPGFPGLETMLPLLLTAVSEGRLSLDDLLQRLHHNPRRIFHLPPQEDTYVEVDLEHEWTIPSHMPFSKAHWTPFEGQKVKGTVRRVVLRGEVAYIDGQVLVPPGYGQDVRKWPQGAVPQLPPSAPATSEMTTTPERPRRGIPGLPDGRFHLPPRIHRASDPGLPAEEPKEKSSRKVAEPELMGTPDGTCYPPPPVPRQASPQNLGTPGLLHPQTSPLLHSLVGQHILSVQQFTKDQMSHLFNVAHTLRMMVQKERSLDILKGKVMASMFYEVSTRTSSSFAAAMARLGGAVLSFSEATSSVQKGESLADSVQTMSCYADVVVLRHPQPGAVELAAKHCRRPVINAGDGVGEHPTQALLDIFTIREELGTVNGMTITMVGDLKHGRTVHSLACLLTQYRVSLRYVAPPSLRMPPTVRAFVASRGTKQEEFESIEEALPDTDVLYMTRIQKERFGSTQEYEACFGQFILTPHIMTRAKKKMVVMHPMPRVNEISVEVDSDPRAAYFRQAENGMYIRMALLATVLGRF

[3] = target: T2, SW480 colon carcinoma cells lysate proteins (Homo sapiens, UniProt P35527); settings: PreyGene KRT9
T2 sequence (P35527 1-623): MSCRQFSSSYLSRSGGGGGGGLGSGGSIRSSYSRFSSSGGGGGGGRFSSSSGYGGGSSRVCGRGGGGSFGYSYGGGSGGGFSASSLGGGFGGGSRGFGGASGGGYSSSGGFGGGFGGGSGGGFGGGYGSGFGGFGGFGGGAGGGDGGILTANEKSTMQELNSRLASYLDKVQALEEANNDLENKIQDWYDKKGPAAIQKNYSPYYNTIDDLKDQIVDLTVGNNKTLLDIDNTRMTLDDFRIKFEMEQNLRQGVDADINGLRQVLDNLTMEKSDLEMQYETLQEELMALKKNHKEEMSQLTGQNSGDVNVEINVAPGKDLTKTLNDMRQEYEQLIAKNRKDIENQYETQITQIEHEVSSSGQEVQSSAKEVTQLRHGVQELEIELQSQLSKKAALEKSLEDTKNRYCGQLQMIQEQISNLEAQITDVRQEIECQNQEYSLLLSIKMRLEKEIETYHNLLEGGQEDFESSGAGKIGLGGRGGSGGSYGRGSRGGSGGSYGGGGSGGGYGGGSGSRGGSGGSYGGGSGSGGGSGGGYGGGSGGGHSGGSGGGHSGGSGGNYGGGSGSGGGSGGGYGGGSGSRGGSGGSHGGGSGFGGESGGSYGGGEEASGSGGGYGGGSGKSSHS

[4] = target: T3, SW480 colon carcinoma cells lysate proteins (Homo sapiens, UniProt P40926); settings: PreyGene MDH2
T3 sequence (P40926 25-338): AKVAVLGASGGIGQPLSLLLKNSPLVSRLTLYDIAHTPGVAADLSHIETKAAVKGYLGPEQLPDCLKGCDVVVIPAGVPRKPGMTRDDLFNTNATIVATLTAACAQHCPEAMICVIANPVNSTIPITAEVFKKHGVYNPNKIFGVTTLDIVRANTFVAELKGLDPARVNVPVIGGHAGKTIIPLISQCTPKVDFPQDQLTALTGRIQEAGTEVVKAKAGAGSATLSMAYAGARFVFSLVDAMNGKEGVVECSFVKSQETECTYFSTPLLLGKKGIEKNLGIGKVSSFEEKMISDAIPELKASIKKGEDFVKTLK

[5] = target: T4, SW480 colon carcinoma cells lysate proteins (Homo sapiens, UniProt P61916); settings: PreyGene NPC2
T4 sequence (P61916 20-151): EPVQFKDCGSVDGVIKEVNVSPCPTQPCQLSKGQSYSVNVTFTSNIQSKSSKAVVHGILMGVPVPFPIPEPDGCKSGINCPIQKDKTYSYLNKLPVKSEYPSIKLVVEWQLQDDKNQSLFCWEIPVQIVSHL

[6] = target: T5, SW480 colon carcinoma cells lysate proteins (Homo sapiens, UniProt Q14444); settings: PreyGene CAPRIN1
T5 sequence (Q14444 1-709): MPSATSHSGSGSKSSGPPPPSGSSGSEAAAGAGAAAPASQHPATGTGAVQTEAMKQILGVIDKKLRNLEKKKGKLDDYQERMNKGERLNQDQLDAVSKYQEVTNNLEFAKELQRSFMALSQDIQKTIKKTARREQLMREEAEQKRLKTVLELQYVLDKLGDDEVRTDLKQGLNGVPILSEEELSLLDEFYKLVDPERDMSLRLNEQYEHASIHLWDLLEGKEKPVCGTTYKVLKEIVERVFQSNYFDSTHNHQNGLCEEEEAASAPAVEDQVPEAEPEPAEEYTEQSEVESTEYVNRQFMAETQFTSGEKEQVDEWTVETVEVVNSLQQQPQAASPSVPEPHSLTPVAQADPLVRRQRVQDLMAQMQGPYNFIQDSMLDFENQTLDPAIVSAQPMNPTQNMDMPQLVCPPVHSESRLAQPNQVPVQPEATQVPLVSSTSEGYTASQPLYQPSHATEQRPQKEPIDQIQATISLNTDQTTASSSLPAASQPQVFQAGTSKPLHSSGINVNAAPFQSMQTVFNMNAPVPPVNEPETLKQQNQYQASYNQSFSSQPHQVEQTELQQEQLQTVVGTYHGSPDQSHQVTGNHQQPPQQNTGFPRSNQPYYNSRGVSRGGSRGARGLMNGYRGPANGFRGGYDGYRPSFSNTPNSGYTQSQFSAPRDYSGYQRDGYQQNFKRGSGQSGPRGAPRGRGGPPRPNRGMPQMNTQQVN

[7] = target: SW480 colon carcinoma cells lysate proteins (Homo sapiens, UniProt Q9HB71); settings: PreyGene CACYBP
SW480 colon carcinoma cells lysate proteins (Homo sapiens, UniProt Q9HB71), sequence (Q9HB71 whole entry): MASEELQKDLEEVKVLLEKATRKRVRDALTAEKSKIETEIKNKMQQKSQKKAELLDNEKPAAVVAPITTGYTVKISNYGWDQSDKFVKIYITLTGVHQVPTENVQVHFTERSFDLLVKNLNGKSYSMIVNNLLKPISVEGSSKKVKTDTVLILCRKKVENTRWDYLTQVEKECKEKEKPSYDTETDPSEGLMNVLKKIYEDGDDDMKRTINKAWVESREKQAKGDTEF

## C[C@H](Oc1cc(-c2cnn(C3CCNCC3)c2)cnc1N)c1c(Cl)ccc(F)c1Cl [(5)-crizotinib]
[1]
  AvgP: 0.461
  SC.Exp. 1-1: 4
  SC.Exp. 1-2: 4
  SC.Exp. 2-1: 0
  SC.Exp. 2-2: 0
  Sum (SC.Exp.): 8
[2]
  AvgP: 0.3483
  SC.Exp. 1-1: 2
  SC.Exp. 1-2: 3
  SC.Exp. 2-1: 0
  SC.Exp. 2-2: 0
  Sum (SC.Exp.): 5
[3]
  AvgP: 0.1979
  SC.Exp. 1-1: 18
  SC.Exp. 1-2: 15
  SC.Exp. 2-1: 4
  SC.Exp. 2-2: 6
  Sum (SC.Exp.): 43
[4]
  AvgP: 0.4441
  SC.Exp. 1-1: 5
  SC.Exp. 1-2: 5
  SC.Exp. 2-1: 0
  SC.Exp. 2-2: 0
  Sum (SC.Exp.): 10
[5]
  AvgP: 0.3813
  SC.Exp. 1-1: 2
  SC.Exp. 1-2: 2
  SC.Exp. 2-1: 0
  SC.Exp. 2-2: 0
  Sum (SC.Exp.): 4
[6]
  AvgP: 0.2355
  SC.Exp. 1-1: 2
  SC.Exp. 1-2: 2
  SC.Exp. 2-1: 0
  SC.Exp. 2-2: 0
  Sum (SC.Exp.): 4
[7]
  AvgP: 0.392
  SC.Exp. 1-1: 2
  SC.Exp. 1-2: 2
  SC.Exp. 2-1: 0
  SC.Exp. 2-2: 0
  Sum (SC.Exp.): 4
